Test results from PMC8995209 (Cell, 2022).

Target: iaaH (Agrobacterium tumefaciens, UniProt P0A2X2)
Format: cell-based
Settings: hydrolysis to NAA; 48 h conditioning

Sequence of iaaH (P0A2X2 whole entry): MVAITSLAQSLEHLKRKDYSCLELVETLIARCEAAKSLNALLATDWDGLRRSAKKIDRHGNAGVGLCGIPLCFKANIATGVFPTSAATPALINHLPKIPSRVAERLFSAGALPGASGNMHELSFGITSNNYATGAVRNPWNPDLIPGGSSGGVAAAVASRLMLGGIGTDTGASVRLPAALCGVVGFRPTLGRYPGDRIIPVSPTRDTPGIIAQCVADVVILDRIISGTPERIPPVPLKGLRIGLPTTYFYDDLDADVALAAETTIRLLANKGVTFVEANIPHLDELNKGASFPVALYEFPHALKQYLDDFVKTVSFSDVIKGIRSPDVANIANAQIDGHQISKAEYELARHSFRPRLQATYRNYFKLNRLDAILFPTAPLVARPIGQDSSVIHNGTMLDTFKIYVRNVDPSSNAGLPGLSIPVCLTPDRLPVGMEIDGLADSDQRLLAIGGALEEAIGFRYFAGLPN

SMILES: NC(=O)Cc1cccc2ccccc12 [NAM, 1-naphthaleneacetamide]
- conditioned medium of iaaH-expressing CHO-K1 cells, auxin read out by Receiver c: also able to produce the auxin NAA
